Reference: patent US20260258032A1, “TYROSINE KINASE 2 INHIBITORS AND USES THEREOF” (BIOGEN MA INC., priority 2022, published 2026)
Counter-ions that a name gives are not always drawn.

Legend:
[1] = molecular target: T1, JH2 domain of human Tyk2 (Homo sapiens, UniProt P29597); assay: JH2 biochemical assay (TR-FRET probe displacement); assay type: binding; conditions: TR-FRET probe displacement, JH2 domain of human Tyk2
T1 construct: 10×His-tagged TYK2 JH2 domain (amino acid 575-876)
Procedure, shortened: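 10×His-tagged human TYK2 JH2 (aa 575-876, 2 nM) incubated 60 min with 2 nM fluorescent probe, 0.1 nM Tb anti-His antibody and compound (10-point 3-fold series from […] top). TR-FRET 520/495 nm ratio, falling with probe displacement, normalized and fitted to a 4-parameter logistic for IC50.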

[2] = test system: Tyk2 kinase activity on STAT4; assay: pSTAT4 cell assay (MSD, NK92 cells); assay type: cell-based; conditions: compounds 1 hr, then stimulated 15 minutes
Procedure, shortened: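 NK92, serum-starved; cpd 1 hr, 10-pt 4-fold from 10 μM; IL2 30 ng/mL 15 min; lyse; MSD with anti-STAT4 Abs; IC50 by 4-PL fit.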

[3] = test system: JAK2 kinase activity on STAT5; assay: pSTAT5 cell assay (MSD, TF1 cells, IL-3 stimulated); assay type: cell-based; conditions: Homo sapiens, TF-1, compounds 1 hour, 30 ng/mL IL-3 for 15 minutes
Procedure, shortened: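 Serum-starved TF1 cells were pretreated with compound for 1 h (10-point four-fold series from 10 μM), then stimulated with 30 ng/mL IL-3 for 15 min. pSTAT5 in lysates was measured by MSD immunoassay. IC50 came from a 4-parameter logistic fit.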

[4] = test system: JAK1 kinase activity on STAT3; assay: pSTAT3 cell assay (MSD, TF1 cells, IL-6 stimulated); assay type: cell-based; conditions: Homo sapiens, TF-1, compounds 1 hour, 30 ng/mL IL-6 for 15 minutes
Procedure, shortened: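 Serum-starved TF1 cells with endogenous JAK1/STAT3 were pretreated 1 h with compound in a 10-point four-fold dilution series from 10 μM, then stimulated with 30 ng/mL IL-6 for 15 min. pSTAT3 in lysates was quantified by MSD immunoassay, and IC50 came from 4-parameter logistic fits.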

T1 sequence (P29597 575-876): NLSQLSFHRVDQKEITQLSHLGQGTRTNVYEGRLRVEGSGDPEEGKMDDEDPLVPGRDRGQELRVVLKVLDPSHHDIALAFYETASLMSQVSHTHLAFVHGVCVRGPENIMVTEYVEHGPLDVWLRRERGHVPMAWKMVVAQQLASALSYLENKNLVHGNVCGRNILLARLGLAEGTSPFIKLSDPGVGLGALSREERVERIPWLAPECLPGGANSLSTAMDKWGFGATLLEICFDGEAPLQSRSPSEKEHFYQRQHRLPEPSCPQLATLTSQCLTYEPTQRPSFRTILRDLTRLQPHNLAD

| Compound | IC50 [1] [nM] | IC50 [2] [nM] | IC50 [3] [nM] | IC50 [4] [nM] |
| --- | --- | --- | --- | --- |
| CCn1cc(-c2cc(N3CC4(CC4)c4cnc(NC(C)=O)cc43)nc(C(C)(F)F)n2)cn1 [Example 384, N-(1′-(2-(1,1-difluoroethyl)-6-(1-ethyl-1H-pyrazol-4-yl)pyrimidin-4-yl)-1′,2′-dihydrospiro[cyclopropane-1,3′-pyrrolo[3,2-c]pyridin]-6′-yl)acetamide trifluoroacetate] | ≤ 10 | 10 to 100 | ≥ 1000 | ≥ 1000 |
| CC(=O)Nc1cc2c(cn1)C1(CC1)CN2c1cc(-c2cnn(C(C)C)c2)nc(C(C)(F)F)n1 [Example 386, N-(1′-(2-(1,1-difluoroethyl)-6-(1-isopropyl-1H-pyrazol-4-yl)pyrimidin-4-yl)-1′,2′-dihydrospiro[cyclopropane-1,3′-pyrrolo[3,2-c]pyridin]-6′-yl)acetamide trifluoroacetate] | ≤ 10 | ≤ 10 | ≥ 1000 | ≥ 1000 |
